From paper PMC8429728, “TNK1 is a ubiquitin-binding and 14-3-3-regulated kinase that can be targeted to block tumor growth” (Nature Communications, 2021)
Like-named read-outs stand apart in the source and are kept apart here.

Columns and labels:
Assay in all cases: biochemical
Set-up in all cases: Reaction Biology 371-kinase panel at Km ATP, per cent enzyme activity relative to DMSO, single dose in duplicate
Conditions in all cases: duplicate measurements, Km ATP
[1] = molecular target: PAK1 (Homo sapiens, UniProt Q13153)
Experimental: (§1) To assess kinase selectivity, we screened TP-5801 (300 nM) against a panel of 371 kinases in vitro. […] In addition to TNK1, only 7 other kinases were inhibited by more than 90% (Supplementary Fig. 8 and Supplementary Data 2). […] The resulting % Enzyme activity (relative to DMSO controls) were plotted in GraphPad and IC50 values were determined by sigmoidal dose-response (variable slope) curve fits, with a bottom constraint of 0.

[2] = molecular target: JAK2 (Homo sapiens, UniProt O60674)
Experimental: as §1

[3] = molecular target: MINK/MINK1 (Homo sapiens, UniProt Q8N4C8)
Experimental: as §1

[4] = molecular target: MYO3b (Homo sapiens, UniProt Q8WXR4)
Experimental: as §1

[5] = molecular target: CDK1/cyclin E (Homo sapiens, UniProt P06493)
Experimental: as §1

[6] = molecular target: T1, JNK3 (Homo sapiens, UniProt P53779)
T1 construct: gene MAPK10
T1 sequence (P53779 whole entry): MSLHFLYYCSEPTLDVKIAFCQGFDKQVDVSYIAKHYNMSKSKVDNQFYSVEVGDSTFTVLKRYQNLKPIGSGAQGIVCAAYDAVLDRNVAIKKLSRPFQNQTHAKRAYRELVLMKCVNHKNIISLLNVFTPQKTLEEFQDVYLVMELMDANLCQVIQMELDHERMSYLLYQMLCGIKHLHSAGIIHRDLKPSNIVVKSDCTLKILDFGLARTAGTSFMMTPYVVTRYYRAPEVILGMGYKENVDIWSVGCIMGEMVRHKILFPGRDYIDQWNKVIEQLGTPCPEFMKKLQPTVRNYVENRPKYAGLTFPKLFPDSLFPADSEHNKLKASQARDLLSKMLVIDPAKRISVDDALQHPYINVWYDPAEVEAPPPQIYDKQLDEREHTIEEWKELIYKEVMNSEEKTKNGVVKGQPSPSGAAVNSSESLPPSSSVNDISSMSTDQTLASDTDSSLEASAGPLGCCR
Experimental: as §1

[7] = molecular target: T2, ZAK/MLTK (Homo sapiens, UniProt Q9NYL2)
T2 construct: gene MAP3K20
Experimental: as §1

[8] = molecular target: DDR1 (Homo sapiens, UniProt Q08345)
Experimental: as §1

[9] = molecular target: MLCK2/MYLK2 (Homo sapiens, UniProt Q9H1R3)
Experimental: as §1

[10] = molecular target: LRRK2 (Homo sapiens, UniProt Q5S007)
LRRK2, sequence (Q5S007 whole entry): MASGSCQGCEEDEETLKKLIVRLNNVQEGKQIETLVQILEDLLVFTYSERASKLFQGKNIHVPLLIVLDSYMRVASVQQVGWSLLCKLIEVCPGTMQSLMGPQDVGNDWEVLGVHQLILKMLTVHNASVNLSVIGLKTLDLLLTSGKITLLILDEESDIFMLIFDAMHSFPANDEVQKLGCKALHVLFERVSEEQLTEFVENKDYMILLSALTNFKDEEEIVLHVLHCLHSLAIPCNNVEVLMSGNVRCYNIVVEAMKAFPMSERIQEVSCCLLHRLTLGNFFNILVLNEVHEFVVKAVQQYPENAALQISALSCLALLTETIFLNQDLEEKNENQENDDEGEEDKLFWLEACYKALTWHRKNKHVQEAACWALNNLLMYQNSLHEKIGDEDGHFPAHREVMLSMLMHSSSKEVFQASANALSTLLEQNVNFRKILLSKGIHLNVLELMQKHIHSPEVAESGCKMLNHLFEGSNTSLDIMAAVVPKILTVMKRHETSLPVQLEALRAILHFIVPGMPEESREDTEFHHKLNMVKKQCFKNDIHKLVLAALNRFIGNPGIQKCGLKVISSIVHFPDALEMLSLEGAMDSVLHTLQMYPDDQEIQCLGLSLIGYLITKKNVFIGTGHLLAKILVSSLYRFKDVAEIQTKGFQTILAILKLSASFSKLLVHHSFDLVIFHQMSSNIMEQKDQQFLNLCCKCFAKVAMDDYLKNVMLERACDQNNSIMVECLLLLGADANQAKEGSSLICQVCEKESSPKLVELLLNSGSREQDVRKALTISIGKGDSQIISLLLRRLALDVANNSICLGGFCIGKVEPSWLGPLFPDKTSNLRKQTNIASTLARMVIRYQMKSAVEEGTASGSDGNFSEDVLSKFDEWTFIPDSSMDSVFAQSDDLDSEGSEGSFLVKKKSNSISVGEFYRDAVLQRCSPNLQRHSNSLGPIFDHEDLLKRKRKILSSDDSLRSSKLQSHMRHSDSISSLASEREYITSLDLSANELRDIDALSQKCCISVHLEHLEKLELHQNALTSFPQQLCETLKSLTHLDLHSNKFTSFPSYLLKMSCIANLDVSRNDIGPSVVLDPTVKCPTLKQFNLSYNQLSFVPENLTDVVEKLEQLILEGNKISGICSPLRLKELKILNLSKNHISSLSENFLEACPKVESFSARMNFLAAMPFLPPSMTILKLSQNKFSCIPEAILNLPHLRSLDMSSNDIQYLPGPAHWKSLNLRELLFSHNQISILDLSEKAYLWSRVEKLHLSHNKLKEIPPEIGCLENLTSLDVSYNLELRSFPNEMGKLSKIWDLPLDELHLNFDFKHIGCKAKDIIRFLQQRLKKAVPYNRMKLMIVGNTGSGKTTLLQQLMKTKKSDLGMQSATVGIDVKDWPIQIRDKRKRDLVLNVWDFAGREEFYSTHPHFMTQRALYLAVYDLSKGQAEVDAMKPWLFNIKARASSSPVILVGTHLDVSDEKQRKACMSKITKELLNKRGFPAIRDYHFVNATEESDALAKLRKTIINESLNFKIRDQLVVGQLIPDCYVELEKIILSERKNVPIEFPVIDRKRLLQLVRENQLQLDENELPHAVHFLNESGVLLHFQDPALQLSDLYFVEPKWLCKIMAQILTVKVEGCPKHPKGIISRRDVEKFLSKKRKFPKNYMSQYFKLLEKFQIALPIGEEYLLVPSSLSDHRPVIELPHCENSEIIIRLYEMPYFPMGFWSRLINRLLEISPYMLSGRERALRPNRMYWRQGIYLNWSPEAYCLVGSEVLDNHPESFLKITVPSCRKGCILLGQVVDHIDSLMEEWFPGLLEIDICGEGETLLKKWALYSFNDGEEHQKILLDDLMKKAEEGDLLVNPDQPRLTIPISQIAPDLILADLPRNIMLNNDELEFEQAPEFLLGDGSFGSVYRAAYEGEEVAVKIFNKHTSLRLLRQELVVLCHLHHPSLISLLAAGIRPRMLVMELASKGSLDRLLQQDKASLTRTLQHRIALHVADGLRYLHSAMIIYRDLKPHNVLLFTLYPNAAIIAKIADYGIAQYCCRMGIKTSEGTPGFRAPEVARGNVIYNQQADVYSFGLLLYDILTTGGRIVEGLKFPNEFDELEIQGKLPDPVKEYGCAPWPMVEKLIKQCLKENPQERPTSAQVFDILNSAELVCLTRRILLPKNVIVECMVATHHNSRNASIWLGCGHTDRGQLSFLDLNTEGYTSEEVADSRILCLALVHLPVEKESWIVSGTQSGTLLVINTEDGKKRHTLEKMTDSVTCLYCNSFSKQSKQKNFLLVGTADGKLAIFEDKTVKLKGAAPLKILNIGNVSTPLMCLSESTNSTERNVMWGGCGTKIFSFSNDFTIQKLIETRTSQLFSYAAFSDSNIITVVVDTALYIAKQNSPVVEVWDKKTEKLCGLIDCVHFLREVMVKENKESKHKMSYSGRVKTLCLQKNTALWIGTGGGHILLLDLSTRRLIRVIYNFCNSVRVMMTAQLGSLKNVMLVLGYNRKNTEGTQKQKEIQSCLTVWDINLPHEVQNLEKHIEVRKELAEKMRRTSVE
Experimental: as §1

[11] = molecular target: CDK1/cyclin A (Homo sapiens, UniProt P06493)
Experimental: as §1

[12] = molecular target: YSK4/MAP3K19 (Homo sapiens, UniProt Q56UN5)
Experimental: as §1

[13] = molecular target: TSSK2 (Homo sapiens, UniProt Q96PF2)
Experimental: as §1

[14] = molecular target: RAF1 (Homo sapiens, UniProt P04049)
RAF1, sequence (P04049 whole entry): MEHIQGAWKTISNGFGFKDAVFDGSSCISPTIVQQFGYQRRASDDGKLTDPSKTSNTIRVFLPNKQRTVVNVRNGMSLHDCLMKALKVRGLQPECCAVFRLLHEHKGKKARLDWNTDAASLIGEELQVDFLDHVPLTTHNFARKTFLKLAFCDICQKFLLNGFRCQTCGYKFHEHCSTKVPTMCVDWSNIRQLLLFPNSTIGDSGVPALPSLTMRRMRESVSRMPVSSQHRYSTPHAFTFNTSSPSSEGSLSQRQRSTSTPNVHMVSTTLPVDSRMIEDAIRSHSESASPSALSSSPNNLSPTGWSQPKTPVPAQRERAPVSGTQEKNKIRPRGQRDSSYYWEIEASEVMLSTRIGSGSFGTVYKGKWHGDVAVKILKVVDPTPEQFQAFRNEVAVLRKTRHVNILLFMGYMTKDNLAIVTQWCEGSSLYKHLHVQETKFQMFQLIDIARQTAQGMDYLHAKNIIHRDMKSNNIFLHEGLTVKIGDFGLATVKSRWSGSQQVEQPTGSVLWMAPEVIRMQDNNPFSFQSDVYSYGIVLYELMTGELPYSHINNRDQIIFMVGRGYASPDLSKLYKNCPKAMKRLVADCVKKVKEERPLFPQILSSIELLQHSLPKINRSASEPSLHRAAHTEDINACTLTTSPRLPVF
Experimental: as §1

[15] = molecular target: MST3/STK24 (Homo sapiens, UniProt Q9Y6E0)
Experimental: as §1

[16] = molecular target: T3, CK1g1 (Homo sapiens, UniProt Q9HCP0)
T3 construct: gene CSNK1G1
Experimental: as §1

[17] = molecular target: p70S6Kb/RPS6KB2 (Homo sapiens, UniProt Q9UBS0)
p70S6Kb/RPS6KB2, sequence (Q9UBS0 whole entry): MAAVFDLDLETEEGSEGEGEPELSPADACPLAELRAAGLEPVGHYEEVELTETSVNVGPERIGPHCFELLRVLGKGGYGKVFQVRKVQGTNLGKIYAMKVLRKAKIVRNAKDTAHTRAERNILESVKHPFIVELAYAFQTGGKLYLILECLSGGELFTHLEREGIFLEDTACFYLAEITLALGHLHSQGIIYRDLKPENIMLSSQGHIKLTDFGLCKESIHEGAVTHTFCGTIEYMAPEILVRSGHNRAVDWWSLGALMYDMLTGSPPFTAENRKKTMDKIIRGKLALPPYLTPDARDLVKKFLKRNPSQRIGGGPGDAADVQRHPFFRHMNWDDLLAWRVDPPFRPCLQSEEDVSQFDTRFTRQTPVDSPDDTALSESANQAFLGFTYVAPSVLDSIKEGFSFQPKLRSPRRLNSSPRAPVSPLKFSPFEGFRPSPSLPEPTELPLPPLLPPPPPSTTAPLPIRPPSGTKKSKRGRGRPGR
Experimental: as §1

[18] = molecular target: ZIPK/DAPK3 (Homo sapiens, UniProt O43293)
Experimental: as §1

[19] = molecular target: CDK14/cyclin Y (PFTK1) (Homo sapiens, UniProt O94921)
CDK14/cyclin Y (PFTK1), sequence (O94921 whole entry): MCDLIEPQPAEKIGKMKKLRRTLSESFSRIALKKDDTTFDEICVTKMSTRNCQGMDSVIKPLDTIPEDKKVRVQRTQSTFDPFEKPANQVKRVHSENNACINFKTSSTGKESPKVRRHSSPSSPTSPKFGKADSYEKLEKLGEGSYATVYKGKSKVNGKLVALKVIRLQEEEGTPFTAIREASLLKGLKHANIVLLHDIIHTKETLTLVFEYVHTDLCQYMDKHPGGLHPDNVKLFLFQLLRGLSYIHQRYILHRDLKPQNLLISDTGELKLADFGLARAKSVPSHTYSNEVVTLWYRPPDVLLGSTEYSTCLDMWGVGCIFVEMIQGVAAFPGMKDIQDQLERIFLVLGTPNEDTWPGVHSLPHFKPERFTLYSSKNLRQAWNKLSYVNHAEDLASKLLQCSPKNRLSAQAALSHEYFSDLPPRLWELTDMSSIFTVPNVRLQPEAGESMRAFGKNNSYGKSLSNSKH
CDK14/cyclin Y (PFTK1), sequence (Q8ND76 whole entry partner): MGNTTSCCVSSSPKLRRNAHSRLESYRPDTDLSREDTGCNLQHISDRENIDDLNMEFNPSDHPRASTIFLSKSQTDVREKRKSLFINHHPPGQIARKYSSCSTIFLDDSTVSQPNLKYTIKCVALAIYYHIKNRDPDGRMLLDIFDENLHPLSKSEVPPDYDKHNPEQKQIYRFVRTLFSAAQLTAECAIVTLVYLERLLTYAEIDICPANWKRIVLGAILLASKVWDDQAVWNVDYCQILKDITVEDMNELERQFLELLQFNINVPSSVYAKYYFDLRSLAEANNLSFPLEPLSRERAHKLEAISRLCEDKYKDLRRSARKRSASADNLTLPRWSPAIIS
Experimental: as §1

[20] = molecular target: VRK1 (Homo sapiens, UniProt Q99986)
Experimental: as §1

[21] = read-out: % Enzyme Activity (relative to DMSO controls) / TP-0005801 (0.3µM) / Data 1
[22] = read-out: % Enzyme Activity (relative to DMSO controls) / TP-0005801 (0.3µM) / Data 2

COc1cc(N2CCN(C)CC2)c(C)cc1Nc1ncc(Br)c(Nc2cccnc2N(C)C)n1 [TP-5801]
remaining activity at 0.3 µM [1, 21]: 91.5%
remaining activity at 0.3 µM [1, 22]: 86.4%
remaining activity at 0.3 µM [2, 21]: 82.8%
remaining activity at 0.3 µM [2, 22]: 77.7%
remaining activity at 0.3 µM [3, 21]: 95.6%
remaining activity at 0.3 µM [3, 22]: 89.2%
remaining activity at 0.3 µM [4, 21]: 57.7%
remaining activity at 0.3 µM [4, 22]: 56.8%
remaining activity at 0.3 µM [5, 21]: 97.2%
remaining activity at 0.3 µM [5, 22]: 94.9%
remaining activity at 0.3 µM [6, 21]: 81%
remaining activity at 0.3 µM [6, 22]: 80.7%
remaining activity at 0.3 µM [7, 21]: 103%
remaining activity at 0.3 µM [7, 22]: 101%
remaining activity at 0.3 µM [8, 21]: 74.4%
remaining activity at 0.3 µM [8, 22]: 74.1%
remaining activity at 0.3 µM [9, 21]: 104%
remaining activity at 0.3 µM [9, 22]: 100%
remaining activity at 0.3 µM [10, 21]: 8.89%
remaining activity at 0.3 µM [10, 22]: 8.22%
remaining activity at 0.3 µM [11, 21]: 102%
remaining activity at 0.3 µM [11, 22]: 101%
remaining activity at 0.3 µM [12, 21]: 93.8%
remaining activity at 0.3 µM [12, 22]: 92.8%
remaining activity at 0.3 µM [13, 21]: 88.4%
remaining activity at 0.3 µM [13, 22]: 86.9%
remaining activity at 0.3 µM [14, 21]: 90.8%
remaining activity at 0.3 µM [14, 22]: 90.2%
remaining activity at 0.3 µM [15, 21]: 106%
remaining activity at 0.3 µM [15, 22]: 103%
remaining activity at 0.3 µM [16, 21]: 88.5%
remaining activity at 0.3 µM [16, 22]: 87.8%
remaining activity at 0.3 µM [17, 21]: 95.7%
remaining activity at 0.3 µM [17, 22]: 90.1%
remaining activity at 0.3 µM [18, 21]: 81%
remaining activity at 0.3 µM [18, 22]: 79.4%
remaining activity at 0.3 µM [19, 21]: 91.8%
remaining activity at 0.3 µM [19, 22]: 90.2%
remaining activity at 0.3 µM [20, 21]: 92.2%
remaining activity at 0.3 µM [20, 22]: 91.6%
